Biological target: cAMP-specific 3',5'-cyclic phosphodiesterase 4B (Homo sapiens, UniProt Q07343)
Test: In vitro PDE4B Enzyme Activity Detection Assay
Protocol: 1. Experimental MaterialsName Brand Cat No.PDE4B1 enzyme BPS 60041Trequinsin TOCRIS 2337/10IMAP FP IPP Explorer Kit Molecular Device R8124FAM-cAMP Molecular Device R7506OptiPlate -384 F PerkinElmer 6007279black assay plate 384 well Echo plate Labcyte PP-02002. Experimental StepsFirst, a stock solution of the compound at a concentration of 10 mM was prepared in a test tube with 90% DMSO (10% water), and it was used to prepare a series of dilutions with a dilution factor of 1:5 and final concentrations starting from 100 μM to as low as 0.05 nM. 0.2 μl of the compound solution was transferred into a 384-well reaction plate, and 0.2 μl of 100% DMSO was transferred into both the negative and positive controls. Then, 10 μl of 2 PDE4B1 enzyme solution (making a final concentration of 0.04 nM) was added to each well, and 10 μl of 1 reaction buffer instead of the enzyme solution was added to the zero enzyme activity control wells. The plate was centrifuged at 1,000 rpm for 1 min and incubated at room temperature for 15 min. […] After the incubation, the RLU data were read and the inhibition rate was calculated. The IC50 value was calculated from the concentration-inhibition fitted curve, wherein the maximum value refers to the reading of the DMSO control and the minimum value refers to the reading of the zero enzyme activity control.

Sequence of cAMP-specific 3',5'-cyclic phosphodiesterase 4B (Q07343 whole entry): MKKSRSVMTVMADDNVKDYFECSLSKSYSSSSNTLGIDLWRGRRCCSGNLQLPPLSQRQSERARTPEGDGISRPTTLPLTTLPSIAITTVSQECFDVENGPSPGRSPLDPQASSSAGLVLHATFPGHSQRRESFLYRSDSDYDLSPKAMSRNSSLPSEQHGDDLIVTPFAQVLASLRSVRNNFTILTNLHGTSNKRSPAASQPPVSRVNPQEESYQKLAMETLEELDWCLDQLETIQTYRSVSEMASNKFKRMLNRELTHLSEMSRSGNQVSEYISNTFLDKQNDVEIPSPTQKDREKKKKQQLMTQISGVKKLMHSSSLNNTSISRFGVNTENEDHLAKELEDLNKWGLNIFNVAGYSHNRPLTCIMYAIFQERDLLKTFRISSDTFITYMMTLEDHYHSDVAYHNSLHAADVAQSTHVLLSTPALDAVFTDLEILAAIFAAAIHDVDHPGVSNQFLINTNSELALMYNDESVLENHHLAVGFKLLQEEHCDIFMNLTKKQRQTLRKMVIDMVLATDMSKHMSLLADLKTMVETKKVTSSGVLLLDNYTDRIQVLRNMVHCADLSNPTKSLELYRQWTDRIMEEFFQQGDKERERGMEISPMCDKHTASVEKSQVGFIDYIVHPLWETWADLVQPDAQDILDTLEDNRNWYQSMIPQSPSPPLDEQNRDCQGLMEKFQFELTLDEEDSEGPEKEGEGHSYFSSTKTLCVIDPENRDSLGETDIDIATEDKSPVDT

SMILES | IC50 [nM]
COc1ccc(-c2cncc([C@H]3COB(O)C3)n2)c2c1OC(C)(C)CC2 [US20240083921, Compound 11-2] | 3.62
COc1ccc(-c2cncc(C3COB(O)C3)c2)c2c1OC(C)(C)CO2 (configuration not stated) [US20240083921, Compound 8] | 0.22

From BindingDB's records for patent US20240083921 (Reistone Biopharma Company, 2024)
